Results reported in publication PMC8154574 (Journal of Medicinal Chemistry, 2021).

Assays:
hA2AAR [1] = biological target: T1, hA2AAR (Homo sapiens, UniProt P29274); settings: label-free whole-cell assay, HEK293hA2AR
hA2AAR [2] = biological target: T1, hA2AAR; settings: 1 μM; all adenosine receptor subtypes
[3] = patients with heart failure; cited from earlier work

T1 sequence (P29274 whole entry): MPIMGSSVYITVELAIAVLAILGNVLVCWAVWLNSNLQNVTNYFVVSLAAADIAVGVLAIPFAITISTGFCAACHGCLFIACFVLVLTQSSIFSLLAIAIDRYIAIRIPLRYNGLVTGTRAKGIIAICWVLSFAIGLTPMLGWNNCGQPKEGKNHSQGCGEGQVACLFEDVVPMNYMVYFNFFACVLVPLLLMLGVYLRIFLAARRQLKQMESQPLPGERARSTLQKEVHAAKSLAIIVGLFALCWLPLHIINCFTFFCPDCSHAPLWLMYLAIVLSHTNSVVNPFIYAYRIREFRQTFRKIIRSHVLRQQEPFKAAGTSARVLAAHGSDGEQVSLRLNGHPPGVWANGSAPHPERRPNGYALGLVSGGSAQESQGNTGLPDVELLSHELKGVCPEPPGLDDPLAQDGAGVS

SMILES	functional behavior / intrinsic activity at hA2AAR (hA2AAR [1])	further results
Nc1nc(SCc2ncc[nH]2)nc(-c2ccccc2)n1 [Compound 2, 4-(1H-Imidazol-2-yl)methylthio-6-phenyl-1,3,5-triazin-2-amine]	inverse agonism	–
N#Cc1c(SCc2ncc[nH]2)nc(N)nc1-c1ccccc1 [Compound 3, 4-((1H-Imidazol-2-yl)methylthio)-2-amino-6-phenylpyrimidine-5-carbonitrile]	inverse agonist	–
Nc1cc(-c2ccccc2)cc(SCc2ncc[nH]2)n1 [Compound 5, 6-(((1H-Imidazol-2-yl)methyl)thio)-4-phenylpyridin-2-amine]	–	displacement of radioligand binding in preliminary single-concentration assays (hA2AAR [2]): no or negligible displacement
N#Cc1c(-c2ccccc2)cc(N)nc1SCc1ncc[nH]1 [Compound 6, 2-(((1H-Imidazol-2-yl)methyl)thio)-6-amino-4-phenylnicotinonitrile]	did not show any measurable degree of intrinsic activity	–
N#Cc1c(SCc2csc(-c3ccc(Cl)cc3)n2)nc(N2CCCC2)c(C#N)c1-c1ccc(OCCO)cc1 [neladenoson]	–	primary endpoint of phase 2b clinical trial [3]: failed to meet the primary endpoint
